Data set [1] deals with chorioallantoic membrane (CAM). Kind of data set: Early chicken chorioallantoic membrane (CAM) assay of angiogenesis. The class given is in vivo. The conditions noted are these: taxol treated CAM, dose not given.
Data set [2] concerns chorioallantoic membrane (CAM). The description is as above. Particulars: for CAM increase (fold): Day 4 to Day 5. The class given is in vivo. The method, then: Fertilized chicken eggs (HiChick Breeding Co, Kapunda, South Australia) were incubated for three days at 38° C. On Day 3 the embryos were cracked out of the egg and into a cup made of plastic piping, with plastic film stretched over the top to form a hammock for the egg to be suspended in. Two ml of DMEM containing penicillin and streptomycin was added to each cup prior to the egg being added. A Petri dish on the top maintained sterility. Incubation continued in a humidified 37° C. incubator.
On Day 4 the chorioallantoic membrane (CAM) begins to grow, and pictures were taken of each embryo at ×5 to measure the CAM area using image analysis software (Video Pro 32, Leading Edge Pty Ltd, South Australia). Embryos were then grouped according to their CAM area, with a control embryo in each for comparison. There were four matched embryos, treated with 6.25, 12.5 and 25 ng of homoharringtonine. Grouping is critical as in these early developmental stages changes in the CAM growth are dramatic. Relatively small differences in size on Day 4 translate to large differences in the CAM on Day 5, making it impossible to compare treatments. Substances were applied in methylcellulose discs, which were first dried under vacuum overnight. The methylcellulose discs were applied to the top of the CAM, and at the beginning of treatment were at least three to four-fold bigger than the CAM area, meaning treatment covered the entire CAM surface.
On Day 5 skim milk with contrast medium was injected into the CAM. Pictures were then taken at various levels of magnification up to ×63. Quantitative measurements were made from ×5 pictures. CAM area, and vein and artery lengths were measured using image analysis (Video Pro 32, Leading Edge Pty Ltd, South Australia). Relative vessel lengths were then calculated as the total length/CAM area. Statistical analysis was made using SigmaStat and OneWay ANOVA with p<0.05 as the level of significance.
The normal organization of the CAM is uniform, with the major vein draining towards the left, and the artery branches coming over the edge of the top and bottom of the CAM. FIG. 3 schematically illustrates tracing of the vein and artery branches, as performed for the measurement of vessel lengths.
The angiogenic inhibitor, homoharringtonine, was obtained from ChemGenex Therapeutics, Inc. (Menlo Park, Calif.) and was made to the appropriate concentration in sterile water. […] Homoharringtonine was applied at 6.25, 12.5 and 25 ng (11.3, 22.5 and 45 nM) doses, and compared with water treated controls. Homoharringtonine reduced the growth of the CAM to 42% of the control in the 25 ng treated CAM. […] The vein, artery and total vessel lengths were reduced to 15%, 18% and 17% of control, respectively.

Where [3] appears, read: 6.25 ng, Day 5, mean ± SEM, n = 6.
The mark [4] stands for this setting: 25 ng, Day 5, mean ± SEM, n = 6.

Marks after values point to notes of the source that are not given here.

The values below come from US7642252B2, “Angiogenesis inhibition by cephalotaxine alkaloids, derivatives, compositions and uses thereof” (Chemgenex Pharmaceuticals, Inc., priority 2002, dated 2010).

On to `CC(=O)O[C@H]1C(=O)[C@@]2(C)[C@H]([C@H](OC(=O)c3ccccc3)[C@]3(O)C[C@H](OC(=O)[C@H](O)[C@@H](NC(=O)c4ccccc4)c4ccccc4)C(C)=C1C3(C)C)[C@]1(OC(C)=O)CO[C@@H]1C[C@@H]2O` [taxol], for which, in data set [1], the “Qualitative changes of CAM at higher magnification (FIG. 5)” value is “diffuse leakage of the red blood cells outside the vessels and the skeletons of larger vessels with no remaining blood flow”.
Turning to `COC(=O)C[C@](O)(CCCC(C)(C)O)C(=O)O[C@@H]1C(OC)=C[C@]23CCCN2CCc2cc4c(cc2[C@H]13)OCO4` [Homoharringtonine, cephalotaxine, 4-methyl-2-hydroxy-2-(4-hydroxy-4-methylpentyl) butanediocate ester], in data set [2] (6.25 ng, mean ± SEM, n = 6), the “CAM increase (fold)” value is 7.0 ± 0.4^a fold. Further, in data set [2] (setting [3]), the Artery length worked out at 1573 ± 516 pixels, the Relative artery length is recorded as 31.6 ± 4.5^ab length/CAM area, the “Relative total vessel length” value is 63.2 ± 7.7^b length/CAM area and the Relative vein length is on record as 31.6 ± 4.6^b length/CAM area. In data set [2] (setting [3]), this compound came in with a Vein length of 1482 ± 499 pixels. Also, the Relative artery length in data set [2] (12.5 ng, Day 5, mean ± SEM, n = 6) is on record as 31.8 ± 3.7^ab length/CAM area. Moreover, the Embryo lethality result in data set [2] (25 ng dose) is recorded as “killed one of the smaller embryos”. Also, the “CAM increase (fold)” value in data set [2] (25 ng, mean ± SEM, n = 6) is recorded as 4.3 ± 0.7^a fold. Besides, in data set [2] (setting [4]), the Artery length is 551 ± 265^a pixels, the Total vessel length is 909 ± 396^a pixels and the Vein length is listed as 359 ± 143^a pixels. Moreover, the Embryo lethality entry in data set [2] (initial doses (higher than 25 ng, not given)) was “resulted in the death of the embryos”.
